Laboratory results as given in PubChem BioAssay AID328 (DTP/NCI, 2004).
“And” between values parts separate entries of the source, which are not always exact repeats. Equal entries are not always repeated. Toxic doses and inconclusive results are not listed. The calls were made as follows: active = survival T/C of 150% or more; inactive = T/C below 125% in these data.

Tested on: BDF1 mice, P388 leukemia ip, median survival T/C
Assay: NCI In Vivo Anticancer Drug Screen. Data for tumor model P388 Leukemia (intraperitoneal) in B6D2F1 (BDF1) mice
Conditions: endpoint: median survival time, higher = longer survival
Method in brief: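 Survival ratio, drug arm over vehicle arm, in mice with a transplanted tumour.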

[1] = dose: 100.0 mg/kg/injection, schedule: Q01DX009 (ip), vehicle: saline with Tween-80
[2] = dose: 200.0 mg/kg/injection, schedule: Q01DX009 (ip), vehicle: saline with Tween-80
[3] = dose: 400.0 mg/kg/injection, schedule: Q01DX009 (ip), vehicle: saline with Tween-80
[4] = dose: 50.0 mg/kg/injection, schedule: Q01DX009 (ip), vehicle: saline with Tween-80
[5] = dose: 100.0 mg/kg/injection, schedule: Q04DX002 (ip), vehicle: saline with Tween-80
[6] = dose: 100.0 mg/kg/injection, schedule: Q04DX003 (ip), vehicle: saline with Tween-80
[7] = dose: 200.0 mg/kg/injection, schedule: Q04DX003 (ip), vehicle: saline with Tween-80
[8] = dose: 400.0 mg/kg/injection, schedule: Q04DX003 (ip), vehicle: saline with Tween-80

Measured: T/C

COc1ccc(OC)c2nc3c(=O)[nH]c(=O)[nH]c3nc12
inactive: dose: 55.0 mg/kg/injection, schedule: Q01DX010 (ip), vehicle: water 100 % of control | dose: 80.0 mg/kg/injection, schedule: Q01DX010 (ip), vehicle: water 109 % of control | dose: 120.0 mg/kg/injection, schedule: Q01DX010 (ip), vehicle: water 109 % of control | dose: 180.0 mg/kg/injection, schedule: Q01DX010 (ip), vehicle: water 118 % of control

O=C(CC(O)(C(F)(F)Cl)C(F)(F)Cl)c1cccs1
inactive: dose: 100.0 mg/kg/injection, schedule: Q01DX001 (ip), vehicle: saline with Tween-80 95 % of control | dose: 200.0 mg/kg/injection, schedule: Q01DX001 (ip), vehicle: saline with Tween-80 100 % of control | dose: 400.0 mg/kg/injection, schedule: Q01DX001 (ip), vehicle: saline with Tween-80 100 % of control

O=C(Nc1cc(Cl)ccc1Cl)c1ccc(C(=O)Nc2cc(Cl)ccc2Cl)cc1
inactive: [1] 94 % of control | [2] 91 % of control | [3] 110 % of control

CCCCCCCCNCCCCCCCC
inactive: dose: 9.0 mg/kg/injection, schedule: Q01DX009 (ip), vehicle: gum acacia 108 % of control and 113 % of control | dose: 9.0 mg/kg/injection, schedule: Q04DX003 (ip), vehicle: gum acacia 100 % of control | dose: 18.0 mg/kg/injection, schedule: Q01DX009 (ip), vehicle: gum acacia 95 % of control and 108 % of control | dose: 18.0 mg/kg/injection, schedule: Q04DX003 (ip), vehicle: gum acacia 95 % of control | dose: 37.0 mg/kg/injection, schedule: Q01DX009 (ip), vehicle: gum acacia 104 % of control and 116 % of control | dose: 37.0 mg/kg/injection, schedule: Q04DX003 (ip), vehicle: gum acacia 100 % of control

O=C(Cn1ccc(=O)[nH]c1=O)N1CCOCC1
inactive: dose: 100.0 mg/kg/injection, schedule: Q01DX009 (ip), vehicle: water 104 % of control | dose: 200.0 mg/kg/injection, schedule: Q01DX009 (ip), vehicle: water 104 % of control | dose: 400.0 mg/kg/injection, schedule: Q01DX009 (ip), vehicle: water 95 % of control

Cn1c(Cc2ccccc2)c([N+](=O)[O-])c(=O)n(C)c1=O
inactive: [4] 110 % of control | [1] 113 % of control

CC(CCC(=O)NC12CC3CC(CC(C3)C1)C2)C1CCC2C3CCC4CC(OC=O)CCC4(C)C3CC(OC=O)C12C (centres undefined)
inactive: dose: 12.5 mg/kg/injection, schedule: Q04DX002 (ip), vehicle: saline with Tween-80 91 % of control | dose: 25.0 mg/kg/injection, schedule: Q04DX002 (ip), vehicle: saline with Tween-80 110 % of control

Cc1nc2ncn(C)c2nc1C
inactive: dose: 25.0 mg/kg/injection, schedule: Q01DX001 (ip), vehicle: saline sonified 105 % of control | dose: 50.0 mg/kg/injection, schedule: Q01DX001 (ip), vehicle: saline sonified 100 % of control | dose: 100.0 mg/kg/injection, schedule: Q01DX001 (ip), vehicle: saline sonified 105 % of control

Clc1nc2n[nH]nc2nc1Cl
inactive: dose: 3.13 mg/kg/injection, schedule: Q01DX009 (ip), vehicle: saline 100 % of control | dose: 6.25 mg/kg/injection, schedule: Q01DX009 (ip), vehicle: saline 95 % of control

Cc1ccn(C(=O)CC#N)n1
inactive: dose: 75.0 mg/kg/injection, schedule: Q01DX009 (ip), vehicle: saline with Tween-80 91 % of control | dose: 150.0 mg/kg/injection, schedule: Q01DX009 (ip), vehicle: saline with Tween-80 97 % of control | dose: 300.0 mg/kg/injection, schedule: Q01DX009 (ip), vehicle: saline with Tween-80 92 % of control

CC(=O)N(C)c1ccc(Nc2cc(C)[nH]c3ccc4ncnc4c23)cc1
active: dose: 50.0 mg/kg/injection, schedule: Q04DX002 (ip), vehicle: saline 158 % of control | [5] 181 % of control | dose: 100.0 mg/kg/injection, schedule: Q04DX002 (ip), vehicle: saline 181 % of control

[N-]=[N+]=CC(=O)NCC(=O)NN
active: dose: 200.0 mg/kg/injection, schedule: Q01DX010 (ip), vehicle: water 166 % of control and 175 % of control | dose: 400.0 mg/kg/injection, schedule: Q01DX010 (ip), vehicle: saline 181 % of control
inactive: dose: 50.0 mg/kg/injection, schedule: Q01DX010 (ip), vehicle: water 120 % of control

CC(=O)OC/C(=N\Nc1ccc([N+](=O)[O-])cc1[N+](=O)[O-])c1ccccc1
inactive: dose: 3.13 mg/kg/injection, schedule: Q01DX001 (ip), vehicle: saline with Tween-80 104 % of control | dose: 6.25 mg/kg/injection, schedule: Q01DX001 (ip), vehicle: saline with Tween-80 100 % of control | dose: 12.5 mg/kg/injection, schedule: Q01DX001 (ip), vehicle: saline with Tween-80 95 % of control

Nc1nc(N)c2cc(NCc3ccc(Br)cc3)ccc2n1
inactive: dose: 3.12 mg/kg/injection, schedule: Q01DX009 (ip), vehicle: Klucel (hydroxypropylcellulose) (HPC) 105 % of control | dose: 6.25 mg/kg/injection, schedule: Q01DX009 (ip), vehicle: Klucel (hydroxypropylcellulose) (HPC) 100 % of control | dose: 12.5 mg/kg/injection, schedule: Q01DX009 (ip), vehicle: Klucel (hydroxypropylcellulose) (HPC) 95 % of control

CC1C2CCCC1(OC(=O)c1cc([N+](=O)[O-])cc([N+](=O)[O-])c1)C2 (centres undefined)
inactive: [5] 101 % of control | dose: 200.0 mg/kg/injection, schedule: Q04DX002 (ip), vehicle: saline with Tween-80 94 % of control | dose: 400.0 mg/kg/injection, schedule: Q04DX002 (ip), vehicle: saline with Tween-80 95 % of control

O=C(c1ccccc1)c1c2ccccc2c(-c2ccccc2)c2ccccc12
inactive: dose: 100.0 mg/kg/injection, schedule: Q01DX009 (ip), vehicle: Klucel (hydroxypropylcellulose) (HPC) 100 % of control | dose: 100.0 mg/kg/injection, schedule: Q04DX003 (ip), vehicle: Klucel (hydroxypropylcellulose) (HPC) 91 % of control | dose: 200.0 mg/kg/injection, schedule: Q01DX009 (ip), vehicle: Klucel (hydroxypropylcellulose) (HPC) 100 % of control | dose: 200.0 mg/kg/injection, schedule: Q04DX003 (ip), vehicle: Klucel (hydroxypropylcellulose) (HPC) 87 % of control | dose: 400.0 mg/kg/injection, schedule: Q01DX009 (ip), vehicle: Klucel (hydroxypropylcellulose) (HPC) 111 % of control | dose: 400.0 mg/kg/injection, schedule: Q04DX003 (ip), vehicle: Klucel (hydroxypropylcellulose) (HPC) 95 % of control

Cc1ccc(C(=O)C2C(c3ccccc3)N2Cc2ccccc2)cc1 (centres undefined)
inactive: [6] 94 % of control and 99 % of control | [7] 109 % of control and 92 % of control | [8] 99 % of control and 87 % of control

O=C(O)CCI
inactive: dose: 25.0 mg/kg/injection, schedule: Q04DX003 (ip), vehicle: saline with Tween-80 113 % of control | dose: 50.0 mg/kg/injection, schedule: Q01DX009 (ip), vehicle: saline 100 % of control | dose: 50.0 mg/kg/injection, schedule: Q04DX003 (ip), vehicle: saline with Tween-80 100 % of control | dose: 100.0 mg/kg/injection, schedule: Q01DX001 (ip), vehicle: saline 104 % of control | dose: 100.0 mg/kg/injection, schedule: Q01DX009 (ip), vehicle: saline 100 % of control | [6] 92 % of control and 95 % of control | dose: 200.0 mg/kg/injection, schedule: Q01DX001 (ip), vehicle: saline 104 % of control | dose: 200.0 mg/kg/injection, schedule: Q01DX009 (ip), vehicle: saline 91 % of control

CC1CN1C(=O)c1cc(C(=O)N2CC2C)cc(C(=O)N2CC2C)c1 (centres undefined)
inactive: dose: 8.25 mg/kg/injection, schedule: Q04DX003 (ip), vehicle: saline with Tween-80 113 % of control | dose: 16.5 mg/kg/injection, schedule: Q04DX003 (ip), vehicle: saline with Tween-80 117 % of control | dose: 66.0 mg/kg/injection, schedule: Q04DX003 (ip), vehicle: saline 86 % of control | dose: 150.0 mg/kg/injection, schedule: Q04DX003 (ip), vehicle: saline 86 % of control
active: dose: 37.5 mg/kg/injection, schedule: Q01DX009 (ip), vehicle: saline with Tween-80 166 % of control | [4] 163 % of control

CCOC(=O)c1nnc(-c2ccccc2)c(-c2ccccc2)n1
inactive: [6] 104 % of control | [7] 96 % of control | [8] 89 % of control

N=Cc1c(O)n(-c2ccccc2)c(=O)n(-c2ccccc2)c1=O
inactive: [1] 95 % of control | [2] 95 % of control | [3] 90 % of control

COC1CC(C)(O)C(OC2CCC(OC(=O)C(C)C(O)c3ccc4c(c3)C(=O)C=C(C)C4=O)C(C)O2)C(C)O1 (centres undefined)
inactive: dose: 1.25 mg/kg/injection, schedule: Q01DX009 (ip), vehicle: saline 100 % of control and 103 % of control | dose: 2.5 mg/kg/injection, schedule: Q01DX009 (ip), vehicle: saline 94 % of control and 100 % of control | dose: 5.0 mg/kg/injection, schedule: Q01DX009 (ip), vehicle: saline 99 % of control | dose: 10.0 mg/kg/injection, schedule: Q01DX009 (ip), vehicle: saline 99 % of control
